Data: ChEMBL document CHEMBL5113515, “The Discovery of GSK3640254, a Next-Generation Inhibitor of HIV-1 Maturation” (J Med Chem, 2022)

Columns and labels:
[1] = tested on: Human immunodeficiency virus 1; experiment: Antiviral activity against HIV1 wild type NL (4 to 3) infected in human MT2 cells measured after 4 to 5 days by dual-luciferase reporter assay; format: functional, organism-based; details: Human immunodeficiency virus 1, MT2
[2] = tested on: Human immunodeficiency virus 1; experiment: Antiviral activity against HIV1 wild type NL (4 to 3) infected in human MT2 cells measured after 4 to 5 days in presence of human serum by dual-luciferase reporter assay; format: functional, organism-based
[3] = tested on: Human immunodeficiency virus 1; experiment: Antiviral activity against HIV1 harbouring T332S/V362I/prR41G mutant infected in human MT2 cells measured after 4 to 5 days by dual-luciferase reporter assay; format: functional, organism-based; details: Human immunodeficiency virus 1, MT2
MT2 = experiment: Cytotoxicity in human MT2 cells assessed as reduction in cell viability; format: functional
[4] = tested on: Human immunodeficiency virus 1; experiment: Antiviral activity against HIV1 harbouring V362I/V370A mutant infected in human MT2 cells measured after 4 to 5 days by dual-luciferase reporter assay; format: functional, organism-based; details: Human immunodeficiency virus 1, MT2
[5] = tested on: Human immunodeficiency virus 1; experiment: Antiviral activity against HIV1 harbouring deltaV370/T371A mutant infected in human MT2 cells measured after 4 to 5 days by dual-luciferase reporter assay; format: functional, organism-based; details: Human immunodeficiency virus 1, MT2
[6] = AUC in rat at 5 mg/kg, po; format: ADME, organism-based; design: dose 5 mg/kg, route po; details: in vivo, read-out: AUC
[7] = Human immunodeficiency virus 1, MT2

Structure (SMILES) | EC50 [1] | EC50 [2, 7] | EC50 [3] | CC50 (MT2) | EC50 [4] | EC50 [5] | AUC [6] | EC50 ([2]; mt2)
C=C(C)[C@@H]1CC[C@]2(NCCN3CCS(=O)(=O)CC3)CC[C@]3(C)[C@H](CC[C@@H]4[C@@]5(C)CC=C(C6=CCC(CCO)(C(=O)O)CC6)C(C)(C)[C@@H]5CC[C@]43C)[C@@H]12 (stereo not given in full) | 4.6 nM | 85.8 nM | 15.9 nM | 12700 nM | 4.5 nM | 5.3 nM | – | –
C=C(C)[C@@H]1CC[C@]2(NCCN3CCS(=O)(=O)CC3)CC[C@]3(C)[C@H](CC[C@@H]4[C@@]5(C)CC=C(C6=CCC(COCC)(C(=O)O)CC6)C(C)(C)[C@@H]5CC[C@]43C)[C@@H]12 (stereo not given in full) | 3.2 nM | 21.8 nM | 11.5 nM | 5100 nM | – | – | – | –
C=C(C)[C@@H]1CC[C@]2(NCCN3CCS(=O)(=O)CC3)CC[C@]3(C)[C@H](CC[C@@H]4[C@@]5(C)CC=C(C6=CCC(O)(C(=O)O)CC6)C(C)(C)[C@@H]5CC[C@]43C)[C@@H]12 (stereo not given in full) | 2 nM | 13.1 nM | 28.5 nM | 6400 nM | 6 nM | 2.4 nM | – | –
C=C(C)[C@@H]1CC[C@]2(NCCN3CCC(S(C)(=O)=O)CC3)CC[C@]3(C)[C@H](CC[C@@H]4[C@@]5(C)CC=C(C6=CCC(CF)(C(=O)O)CC6)C(C)(C)[C@@H]5CC[C@]43C)[C@@H]12 (stereo not given in full) | 1.7 nM | 10.9 nM | 6.6 nM | 12400 nM | – | – | 14.7 µM·h | –
C=C(C)[C@@H]1CC[C@]2(NCCN3CCC(S(C)(=O)=O)CC3)CC[C@]3(C)[C@H](CC[C@@H]4[C@@]5(C)CC=C(C6=CC[C@](CF)(C(=O)O)CC6)C(C)(C)[C@@H]5CC[C@]43C)[C@@H]12 | 2.3 nM | 14.7 nM | 6.5 nM | 7100 nM | – | 8.2 nM | 24.1 µM·h | –
C=C(C)[C@@H]1CC[C@]2(NCCN3CCS(=O)(=O)CC3)CC[C@]3(C)[C@H](CC[C@@H]4[C@@]5(C)CC=C(C6=CC7C(C6)C7C(=O)O)C(C)(C)[C@@H]5CC[C@]43C)[C@@H]12 (stereo not given in full) | 2.3 nM | 30.9 nM | 299 nM | 6400 nM | 657 nM | 16.7 nM | – | –
C=C(C)[C@@H]1CC[C@]2(NCCN3CCS(=O)(=O)CC3)CC[C@]3(C)[C@H](CC[C@@H]4[C@@]5(C)CC=C(C6=CCC(CC(=O)O)CC6)C(C)(C)[C@@H]5CC[C@]43C)[C@@H]12 (stereo not given in full) | 13.1 nM | 12 nM | 124 nM | 6400 nM | 15.7 nM | 5.3 nM | – | –
C=C(C)[C@@H]1CC[C@]2(NCCN3CCS(=O)(=O)CC3)CC[C@]3(C)[C@H](CC[C@@H]4[C@@]5(C)CC=C(C6=CCC(C(=O)O)CC6)C(C)(C)[C@@H]5CC[C@]43C)[C@@H]12 (stereo not given in full) | – | – | – | 13900 nM | – | – | 12.9 µM·h | –
C=C(C)[C@@H]1CC[C@]2(NCCN3CCC(S(C)(=O)=O)CC3)CC[C@]3(C)[C@H](CC[C@@H]4[C@@]5(C)CC=C(C6=CCC(CCCOC)(C(=O)O)CC6)C(C)(C)[C@@H]5CC[C@]43C)[C@@H]12 (stereo not given in full) | 2 nM | 19.3 nM | 11.1 nM | 12100 nM | – | – | – | –
C=C(C)[C@@H]1CC[C@]2(NCCN3CCS(=O)(=O)CC3)CC[C@]3(C)[C@H](CC[C@@H]4[C@@]5(C)CC=C(C6=CCC(CC7CC7)(C(=O)O)CC6)C(C)(C)[C@@H]5CC[C@]43C)[C@@H]12 (stereo not given in full) | 4.5 nM | 48.5 nM | 54.1 nM | 16200 nM | – | – | – | –
C=C(C)[C@@H]1CC[C@]2(NCCN3CCC(S(C)(=O)=O)CC3)CC[C@]3(C)[C@H](CC[C@@H]4[C@@]5(C)CC=C(C6=CCC(CO)(C(=O)O)CC6)C(C)(C)[C@@H]5CC[C@]43C)[C@@H]12 (stereo not given in full) | 1.1 nM | 12.6 nM | 4.6 nM | 9470 nM | 1.2 nM | 1 nM | 2.37 µM·h | –
C=C(C)[C@@H]1CC[C@]2(NCCN3CCS(=O)(=O)CC3)CC[C@]3(C)[C@H](CC[C@@H]4[C@@]5(C)CC=C(C6=CCC(CO)(C(=O)O)CC6)C(C)(C)[C@@H]5CC[C@]43C)[C@@H]12 (stereo not given in full) | 4 nM | 5.9 nM | 25.6 nM | 14200 nM | 1.9 nM | 4.6 nM | – | –
C=C(C)[C@@H]1CC[C@]2(NCCN3CCS(=O)(=O)CC3)CC[C@]3(C)[C@H](CC[C@@H]4[C@@]5(C)CC=C(C6=CCC(OC(C)C)(C(=O)O)CC6)C(C)(C)[C@@H]5CC[C@]43C)[C@@H]12 (stereo not given in full) | 5 nM | 48.5 nM | 987 nM | 9700 nM | – | – | – | –
C=C(C)[C@@H]1CC[C@]2(NCCN3CCS(=O)(=O)CC3)CC[C@]3(C)[C@H](CC[C@@H]4[C@@]5(C)CC=C(C6=CCC(CC(=O)O)(C(=O)O)CC6)C(C)(C)[C@@H]5CC[C@]43C)[C@@H]12 (stereo not given in full) | 3.5 nM | 135 nM | 14.1 nM | 6400 nM | – | – | – | –
C=C(C)[C@@H]1CC[C@]2(NCCN3CCC(S(C)(=O)=O)CC3)CC[C@]3(C)[C@H](CC[C@@H]4[C@@]5(C)CC=C(C6=CCC(CCCO)(C(=O)O)CC6)C(C)(C)[C@@H]5CC[C@]43C)[C@@H]12 (stereo not given in full) | 2.6 nM | 16 nM | 7.9 nM | 12400 nM | 3.2 nM | 2.9 nM | 4.36 µM·h | –
C=C(C)[C@@H]1CC[C@]2(NCCN3CCS(=O)(=O)CC3)CC[C@]3(C)[C@H](CC[C@@H]4[C@@]5(C)CC=C(C6=CCC(C(=O)O)(C(=O)O)CC6)C(C)(C)[C@@H]5CC[C@]43C)[C@@H]12 | – | – | 292 nM | 18600 nM | – | – | – | –
C=C(C)[C@@H]1CC[C@]2(NCCN3CCS(=O)(=O)CC3)CC[C@]3(C)[C@H](CC[C@@H]4[C@@]5(C)CC=C(C6=CCC(COC)(C(=O)O)CC6)C(C)(C)[C@@H]5CC[C@]43C)[C@@H]12 (stereo not given in full) | 1.5 nM | 6.7 nM | 13.9 nM | 4700 nM | – | – | – | –
C=C(C)[C@@H]1CC[C@]2(NCCN3CCS(=O)(=O)CC3)CC[C@]3(C)[C@H](CC[C@@H]4[C@@]5(C)CC=C(C6=CCC(C(=O)O)(c7ccccc7)CC6)C(C)(C)[C@@H]5CC[C@]43C)[C@@H]12 (stereo not given in full) | 7.7 nM | 15.1 nM | 31.2 nM | 13500 nM | – | – | – | –
C=C(C)[C@@H]1CC[C@]2(NCCN3CCC(S(C)(=O)=O)CC3)CC[C@]3(C)[C@H](CC[C@@H]4[C@@]5(C)CC=C(C6=CCC(CC(F)F)(C(=O)O)CC6)C(C)(C)[C@@H]5CC[C@]43C)[C@@H]12 (stereo not given in full) | 1.4 nM | 9.6 nM | 4 nM | 7200 nM | – | – | 4.29 µM·h | –
C=C(C)[C@@H]1CC[C@]2(NCCN3CCS(=O)(=O)CC3)CC[C@]3(C)[C@H](CC[C@@H]4[C@@]5(C)CC=C(C6=CC7(C6)CC(C(=O)O)(C(=O)O)C7)C(C)(C)[C@@H]5CC[C@]43C)[C@@H]12 | 1.3 nM | – | – | > 30000 nM | – | – | – | –
C=C(C)[C@@H]1CC[C@]2(NCCN3CCS(=O)(=O)CC3)CC[C@]3(C)[C@H](CC[C@@H]4[C@@]5(C)CC=C(C6=CC7(C6)CC(C(=O)O)C7)C(C)(C)[C@@H]5CC[C@]43C)[C@@H]12 (stereo not given in full) | – | – | 363 nM | 10700 nM | 48.5 nM | 5.8 nM | 11.7 µM·h | –
C=C(C)[C@@H]1CC[C@]2(NCCN3CCS(=O)(=O)CC3)CC[C@]3(C)[C@H](CC[C@@H]4[C@@]5(C)CC=C(C6=CCC(CF)(C(=O)O)CC6)C(C)(C)[C@@H]5CC[C@]43C)[C@@H]12 (stereo not given in full) | 1.3 nM | 9.5 nM | 3.9 nM | 6800 nM | – | – | 7.7 µM·h | –
C=C(C)[C@@H]1CC[C@]2(NCCN3CCS(=O)(=O)CC3)CC[C@]3(C)[C@H](CC[C@@H]4[C@@]5(C)CC=C(C6=CCC(C)(C(=O)O)CC6)C(C)(C)[C@@H]5CC[C@]43C)[C@@H]12 (stereo not given in full) | 1.5 nM | 12 nM | 4.8 nM | 13100 nM | – | 9.8 nM | 5.86 µM·h | –
C=C(C)[C@@H]1CC[C@]2(NCCN3CCC(S(C)(=O)=O)CC3)CC[C@]3(C)[C@H](CC[C@@H]4[C@@]5(C)CC=C(C6=CC[C@@H](C(=O)O)CC6)C(C)(C)[C@@H]5CC[C@]43C)[C@@H]12 | – | 4.9 nM | 18.8 nM | 9100 nM | – | – | 9.18 µM·h | –
C=C(C)[C@@H]1CC[C@]2(NCCN3CCS(=O)(=O)CC3)CC[C@]3(C)[C@H](CC[C@@H]4[C@@]5(C)CC=C(C6=CCC(CF)(C(=O)O)CC6)C(C)(C)[C@@H]5CC[C@]43C)[C@@H]12 (single isomer, unassigned) [FIPRAVIRIMAT] | 2 nM | – | 9.4 nM | 13300 nM | – | 1.8 nM | 6.98 µM·h | 6.6 nM
C=C(C)[C@@H]1CC[C@]2(NCCN3CCC(S(C)(=O)=O)CC3)CC[C@]3(C)[C@H](CC[C@@H]4[C@@]5(C)CC=C(C6=CC[C@@](CF)(C(=O)O)CC6)C(C)(C)[C@@H]5CC[C@]43C)[C@@H]12 | 1.9 nM | 18.3 nM | 8 nM | 13400 nM | – | 5.8 nM | 19.1 µM·h | –
C=C(C)[C@@H]1CC[C@]2(NCCN3CCS(=O)(=O)CC3)CC[C@]3(C)[C@H](CC[C@@H]4[C@@]5(C)CC=C(C6=CCC(OC)(C(=O)O)CC6)C(C)(C)[C@@H]5CC[C@]43C)[C@@H]12 (stereo not given in full) | 2.5 nM | 25 nM | 21.8 nM | 13100 nM | – | – | 8.24 µM·h | –
C=C(C)[C@@H]1CC[C@]2(NCCN3CCS(=O)(=O)CC3)CC[C@]3(C)[C@H](CC[C@@H]4[C@@]5(C)CC=C(C6=CCC(CC)(C(=O)O)CC6)C(C)(C)[C@@H]5CC[C@]43C)[C@@H]12 (stereo not given in full) | 3.6 nM | 37.9 nM | 9.7 nM | 27500 nM | – | – | – | –
